Consider 18 compounds from US8906913B2, “Azabicyclohexanes” (Panacea Biotec Limited, priority 2009, dated 2014).

Common to all, as to experiment: In-vitro antibacterial activity, broth microdilution MIC
Type in all cases: cell-based

For assay [1], the system named is Enterococcus faecalis ATCC 29212 Vancomycin Sensitive. The settings on record: ATCC29212, Table 7, E. faecalis vancomycin sensitive, broth microdilution, 35±2° C., 16-20 h, read-out: MIC ATCC 29212. The method, then:
(§1) The in-vitro antibacterial activity of the compounds of the present invention (as described in Table 7) was determined by a broth microdilution following the guidelines prescribed by the Clinical and Laboratory Standards Institute (CLSI). This method is described in the CLSI Document M7-A7, Vol. 26, No. 2, “Methods for Dilution Antimicrobial Susceptibility Test for Bacteria that Grow Aerobically; Approved Standard-Seventh Edition”, which is incorporated herein by reference. Minimum Inhibitory Concentration (MIC) is defined as the minimum concentration of test compound which inhibits the growth of bacteria as visible or seen by the naked eye. This test can also be carried out by agar dilution method.
(§2) The compounds of the present invention were tested against a panel of standard microorganisms obtained from ATCC (American type culture collection). Linezolid was used as comparator in all the tests.
(§3) In the broth microdilution method, the compound was dissolved in dimethylsulfoxide and two fold serial dilutions were carried out in 96 well microtitre plates. The inoculum was prepared by adjusting the turbidity of actively growing broth culture and added to the wells to obtain a final bacterial count of ˜2-5×10^4 CFU/well. The microtitre plates were incubated at 35±2° C. for 16-20 h and then read visually.
A general note: Broth dilution looks for growth in wells or tubes with falling amounts of substance.

The test system of assay [2] is Enterococcus faecium ATCC 700221 VRE (Vancomycin resistant E. faecium). The settings on record: Table 7, broth microdilution, 35±2° C., 16-20 h, read-out: MIC ATTC 700221. How it is done:
as §1, §2, §3

The test system of assay [3] is Staphylococcus aureus ATCC 29213 MSSA (Methicillin sensitive). To be noted: Table 7, S. aureus MSSA, broth microdilution, 35±2° C., 16-20 h, read-out: MIC ATCC 29213. How it is done:
as §1, §2, §3

For assay [4], the system named is Staphylococcus aureus ATCC 33591 MRSA (Methicillin resistant). To be noted: Table 7, S. aureus MRSA, broth microdilution, 35±2° C., 16-20 h, read-out: MIC ATCC 33591. The method, then: as §1, §2, §3

Values after ≈ are worked out from the molar mass of the structure shown.

As usually defined, the MIC is the least concentration at which growth counts as inhibited. On to `CC(=O)NC[C@H]1CN(c2ccc(C34CC3CN(Cc3cccnc3)C4)cc2)C(=O)O1` (stereo partly drawn), for which the minimal inhibitory concentration (MIC) was 8 µg/mL (≈ 19.7 µM) in assay [1], 2 µg/mL (≈ 4.92 µM) in assay [2], 4 µg/mL (≈ 9.84 µM) in assay [3] and 4 µg/mL (≈ 9.84 µM) in assay [4].
For the compound `CC(=O)N1CC2CC2(c2ccc(N3C[C@H](Cn4ccnn4)OC3=O)cc2)C1` (stereo partly drawn), the MIC in assay [1] was 2 µg/mL (≈ 5.44 µM); in assay [2], 1 µg/mL (≈ 2.72 µM); in assay [3] it was 1 µg/mL (≈ 2.72 µM); in assay [4], 2 µg/mL (≈ 5.44 µM).
As to `CC(=O)NC[C@H]1CN(c2ccc(C34CC3CN(c3ccc(F)nc3)C4)cc2)C(=O)O1` (stereo partly drawn), the MIC is 1 µg/mL (≈ 2.44 µM) in assay [1], 0.5 µg/mL (≈ 1.22 µM) in assay [2], 1 µg/mL (≈ 2.44 µM) in assay [3] and 0.5 µg/mL (≈ 1.22 µM) in assay [4].
Consider `CC(=O)NC[C@H]1CN(c2ccc(C34CC3CN(S(C)(=O)=O)C4)cc2)C(=O)O1` (stereo partly drawn), for which the minimal inhibitory concentration (MIC) was found to be 2 µg/mL (≈ 5.08 µM) in assay [1], 1 µg/mL (≈ 2.54 µM) in assay [2], 2 µg/mL (≈ 5.08 µM) in assay [3] and 1 µg/mL (≈ 2.54 µM) in assay [4].
Consider `CC(=O)NC[C@H]1CN(c2ccc(C34CC3CN(c3nc5ccccc5s3)C4)cc2)C(=O)O1` (stereo partly drawn), for which the minimum inhibitory concentration (MIC) in assay [1] turned out to be 1 µg/mL (≈ 2.23 µM); in assay [2], 0.25 µg/mL (≈ 0.557 µM); in assay [3], 1 µg/mL (≈ 2.23 µM); in assay [4], 0.5 µg/mL (≈ 1.11 µM).
With `CC(=O)NC[C@H]1CN(c2ccc(N3CCOCC3)c(F)c2)C(=O)O1` [Linezolid, reference compound], the minimum inhibitory concentration (MIC) in assay [1] was 2 µg/mL (≈ 5.93 µM); in assay [2], 1 µg/mL (≈ 2.96 µM); in assay [3] it was 2 µg/mL (≈ 5.93 µM); in assay [4], 1 µg/mL (≈ 2.96 µM).
As to `CC(=O)NC[C@H]1CN(c2ccc(C34CC3CN(C(=O)OC(C)C)C4)cc2)C(=O)O1` (stereo partly drawn), the minimum inhibitory concentration (MIC) stood at 2 µg/mL (≈ 4.98 µM) in assay [1], 1 µg/mL (≈ 2.49 µM) in assay [2], 2 µg/mL (≈ 4.98 µM) in assay [3] and 1 µg/mL (≈ 2.49 µM) in assay [4].
In the case of `COC(=O)NC[C@H]1CN(c2ccc(C34CC3CN(C(C)=O)C4)cc2)C(=O)O1` (stereo partly drawn), the minimum inhibitory concentration (MIC) is 2 µg/mL (≈ 5.36 µM) in assay [1], 1 µg/mL (≈ 2.68 µM) in assay [2], 2 µg/mL (≈ 5.36 µM) in assay [3] and 1 µg/mL (≈ 2.68 µM) in assay [4].
As for `CC(=O)NC[C@H]1CN(c2ccc(C34CC3CN(C(C)=O)C4)c(F)c2)C(=O)O1` (stereo partly drawn), the MIC in assay [1] was 1 µg/mL (≈ 2.66 µM); in assay [2] it was 0.5 µg/mL (≈ 1.33 µM); in assay [3], 1 µg/mL (≈ 2.66 µM); in assay [4], 0.5 µg/mL (≈ 1.33 µM).
In the case of `CC(=O)NC[C@H]1CN(c2ccc(C34CC3CN(C(=O)c3cn5cccnc5n3)C4)cc2)C(=O)O1` (stereo partly drawn), the MIC came to 1 µg/mL (≈ 2.17 µM) in assay [1], 1 µg/mL (≈ 2.17 µM) in assay [2], 2 µg/mL (≈ 4.34 µM) in assay [3] and 2 µg/mL (≈ 4.34 µM) in assay [4].
Regarding `CC(=O)NC[C@H]1CN(c2ccc(C34CC3CN(C#N)C4)cc2)C(=O)O1` (stereo partly drawn), the minimum inhibitory concentration (MIC) is 1 µg/mL (≈ 2.94 µM) in assay [1], 0.5 µg/mL (≈ 1.47 µM) in assay [2], 0.5 µg/mL (≈ 1.47 µM) in assay [3] and 0.5 µg/mL (≈ 1.47 µM) in assay [4].
As for `CC(=O)NCC(=O)N1CC2CC2(c2ccc(N3C[C@H](CNC(C)=O)OC3=O)cc2)C1` (stereo partly drawn), the minimal inhibitory concentration (MIC) in assay [1] is 2 µg/mL (≈ 4.83 µM); in assay [2] it was 4 µg/mL (≈ 9.65 µM); in assay [3], 4 µg/mL (≈ 9.65 µM); in assay [4] it was 4 µg/mL (≈ 9.65 µM).
As for `CC(=O)NC[C@H]1CN(c2ccc(C34CC3CN(C(=O)C(F)(F)F)C4)cc2)C(=O)O1` (stereo partly drawn), the MIC was 2 µg/mL (≈ 4.86 µM) in assay [1], 1 µg/mL (≈ 2.43 µM) in assay [2], 2 µg/mL (≈ 4.86 µM) in assay [3] and 2 µg/mL (≈ 4.86 µM) in assay [4].
For `CC(=O)NC[C@H]1CN(c2ccc(C34CC3CN(c3nccs3)C4)cc2)C(=O)O1` (stereo partly drawn), the minimal inhibitory concentration (MIC) in assay [1] came to 0.125 µg/mL (≈ 0.314 µM); in assay [2] it was 0.5 µg/mL (≈ 1.25 µM); in assay [3], 0.5 µg/mL (≈ 1.25 µM); in assay [4] it was 0.25 µg/mL (≈ 0.627 µM).
Turning to `COC(=O)N1CC2CC2(c2ccc(N3C[C@H](CNC(C)=O)OC3=O)cc2)C1` (stereo partly drawn), the MIC stood at 2 µg/mL (≈ 5.36 µM) in assay [1], 1 µg/mL (≈ 2.68 µM) in assay [2], 2 µg/mL (≈ 5.36 µM) in assay [3] and 1 µg/mL (≈ 2.68 µM) in assay [4].
For `CC(=O)NC[C@H]1CN(c2ccc(C34CC3CN(C(=O)C(=O)c3ccco3)C4)cc2)C(=O)O1` (stereo partly drawn), the minimal inhibitory concentration (MIC) in assay [1] came to 1 µg/mL (≈ 2.29 µM); in assay [2], 0.5 µg/mL (≈ 1.14 µM); in assay [3], 1 µg/mL (≈ 2.29 µM); in assay [4] it was 1 µg/mL (≈ 2.29 µM).
In the case of `CC(=O)NC[C@H]1CN(c2ccc(C34CC3CN(C(C)=O)C4)cc2)C(=O)O1` (stereo partly drawn) [drawing 482], the MIC in assay [1] is 2 µg/mL (≈ 5.6 µM); in assay [2] it was 2 µg/mL (≈ 5.6 µM); in assay [3], 2 µg/mL (≈ 5.6 µM); in assay [4], 1 µg/mL (≈ 2.8 µM).
In the case of `CC(=O)N1CC2CC2(c2ccc(N3C[C@H](CO)OC3=O)cc2)C1` (stereo partly drawn) [drawing 484], the MIC in assay [1] was found to be 4 µg/mL (≈ 12.6 µM); in assay [2], 4 µg/mL (≈ 12.6 µM); in assay [3], 4 µg/mL (≈ 12.6 µM); in assay [4] it was 2 µg/mL (≈ 6.32 µM).
